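48-hour exposure; five concentrations; linearly interpolated endpoints. GI50 is the concentration that inhibits growth by half.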 Calls of active or inactive are those of the source. Rule as the data show it: active = GI50 up to about 1.1 µM and inactive = higher.
Experiments:
Test in all cases: NCI-60 cell line screen, 48 h
SNB-75 = test system: SNB-75
HL-60 = test system: HL-60
HCC 2998 = test system: HCC 2998
LOX IMVI = test system: LOX IMVI
Hs-578T = test system: Hs-578T
PC-3 = test system: PC-3
MCF7 = test system: MCF7
BT-549 = test system: BT-549
HT-29 = test system: HT-29
MDA-MB-231 = test system: MDA-MB-231
NCI-H23 = test system: NCI-H23
SK-MEL-2 = test system: SK-MEL-2
SN12C = test system: SN12C
SK-OV-3 = test system: SK-OV-3
SK-MEL-28 = test system: SK-MEL-28
OVCAR-3 = test system: OVCAR-3
K562 = test system: K562
TK-10 = test system: TK-10

| SMILES | GI50 (SNB-75) | GI50 (HL-60) | GI50 (HCC 2998) | GI50 (LOX IMVI) | GI50 (Hs-578T) | GI50 (PC-3) | GI50 (MCF7) | GI50 (BT-549) | GI50 (HT-29) | GI50 (MDA-MB-231) | GI50 (NCI-H23) | GI50 (SK-MEL-2) | GI50 (SN12C) | GI50 (SK-OV-3) | GI50 (SK-MEL-28) | GI50 (OVCAR-3) | GI50 (K562) | GI50 (TK-10) |
| --- | --- | --- | --- | --- | --- | --- | --- | --- | --- | --- | --- | --- | --- | --- | --- | --- | --- | --- |
| O=C1N/C(=N\N=C\c2ccccc2)C2(CCCCC2)O1 | 20.5 µM (inactive) | 32.9 µM (inactive) | 87.3 µM (inactive) | 56.5 µM (inactive) | 46.8 µM (inactive) | 80.4 µM (inactive) | > 100 µM (inactive) | > 100 µM (inactive) | 78 µM (inactive) | > 100 µM (inactive) | > 100 µM (inactive) | > 100 µM (inactive) | 95.3 µM (inactive) | > 100 µM (inactive) | > 100 µM (inactive) | 44.9 µM (inactive) | 35 µM (inactive) | 74.6 µM (inactive) |
| COC(=O)/C=C1\C(=O)N(C(C)=O)c2ccc(Br)cc21 | 8.59 µM (inactive) | 2.23 µM (inactive) | 17.7 µM (inactive) | 7.89 µM (inactive) | 8.39 µM (inactive) | 8.75 µM (inactive) | 4.5 µM (inactive) | 9.08 µM (inactive) | 8.87 µM (inactive) | 14.9 µM (inactive) | 15.3 µM (inactive) | 13.9 µM (inactive) | 5.71 µM (inactive) | 15.4 µM (inactive) | 14.5 µM (inactive) | 4.76 µM (inactive) | 7.69 µM (inactive) | 6.31 µM (inactive) |
| O=C1C([N-]S(=O)(=O)c2ccccc2)=C([n+]2ccc(Cc3ccccc3)cc2)C(=O)c2ccccc21 | 1.31 µM (inactive) | 1.38 µM (inactive) | 1.2 µM (inactive) | 0.424 µM (active) | 2.19 µM (inactive) | 2.21 µM (inactive) | 0.435 µM (active) | 1.36 µM (inactive) | 0.263 µM (active) | 2.56 µM (inactive) | 0.284 µM (active) | 1.5 µM (inactive) | 1.7 µM (inactive) | 6.12 µM (inactive) | 0.859 µM (active) | 0.142 µM (active) | 0.359 µM (active) | 1.66 µM (inactive) |
| CCOC(=O)c1cccc(NC(=O)CI)c1 | 1.42 µM (inactive) | 0.653 µM (active) | 2.24 µM (inactive) | 0.123 µM (active) | 2.34 µM (inactive) | 1.14 µM (inactive) | 0.394 µM (active) | 0.381 µM (active) | 0.313 µM (active) | 1.31 µM (inactive) | 0.336 µM (active) | 0.871 µM (active) | 0.29 µM (active) | 0.918 µM (active) | 2.2 µM (inactive) | 0.391 µM (active) | 0.191 µM (active) | 0.897 µM (active) |
| Cc1ccc(/C=C2\CCS(=O)(=O)c3ccccc3C2=O)cc1 | 16.7 µM (inactive) | 19.8 µM (inactive) | 14.7 µM (inactive) | 15.2 µM (inactive) | 37.4 µM (inactive) | 20.4 µM (inactive) | 11.9 µM (inactive) | 17.5 µM (inactive) | 17 µM (inactive) | 16.9 µM (inactive) | 15.5 µM (inactive) | 21.9 µM (inactive) | 19.1 µM (inactive) | 21.7 µM (inactive) | 17.8 µM (inactive) | 17.2 µM (inactive) | > 100 µM (inactive) | 16.6 µM (inactive) |
| CSC(=O)c1sc(SC)[n+](-c2ccccc2)c1O | 13.1 µM (inactive) | > 10 µM (inactive) | 19.6 µM (inactive) | 12.6 µM (inactive) | 28.3 µM (inactive) | 14 µM (inactive) | 25.4 µM (inactive) | 15.1 µM (inactive) | 20.2 µM (inactive) | 11.3 µM (inactive) | 17.7 µM (inactive) | 22 µM (inactive) | 19.6 µM (inactive) | 34.4 µM (inactive) | 17.7 µM (inactive) | 13.2 µM (inactive) | 16.6 µM (inactive) | 18.2 µM (inactive) |
| CC(C)=CCC[C@](C)(O[C@@H]1O[C@H](CO)[C@@H](O)[C@H](O)[C@H]1O)[C@H]1CC[C@]2(C)[C@@H]1[C@H](O)C[C@@H]1[C@@]3(C)CC[C@H](O)C(C)(C)[C@@H]3[C@@H](O[C@@H]3O[C@H](CO)[C@@H](O)[C@H](O)[C@H]3O)C[C@]12C [GINSENOSIDE RG1] | > 100 µM (inactive) | > 100 µM (inactive) | > 100 µM (inactive) | > 100 µM (inactive) | > 100 µM (inactive) | > 100 µM (inactive) | > 100 µM (inactive) | > 100 µM (inactive) | > 100 µM (inactive) | > 100 µM (inactive) | > 100 µM (inactive) | > 100 µM (inactive) | > 100 µM (inactive) | > 100 µM (inactive) | > 100 µM (inactive) | > 100 µM (inactive) | > 100 µM (inactive) | > 100 µM (inactive) |
